Experimental data from patent US12371426B2, “Pyridazine derivatives as SMARCA2/4 degraders” (Aurigene Discovery Technologies Limited, priority 2018, dated 2025).

What follows are compounds tested on NCI-H929 cells (assay: Anti proliferative activity in NCI-H929 cell line by Cell Titer Glo assay). Conditions: Homo sapiens, 72 h, 3 days compound incubation, CellTiter Glo, read-out: Anti-proliferative activity IC50 group (NCI-H929 cells).
Assay type: cell-based
Description: Determination of Anti Proliferative Activity of Compounds in NCI-H929 and NCI-H838 Cell Lines by Cell Titer Glo® (promega) assay:
NCI-H929 (ATCC CRL-9068) or NCI-H838 (ATCC CRL-5844) cells were seeded in 96 well plate flat black clear bottom plates (Corning, Cat. No 3904) using complete RPMI-1640 media. Next day, compounds listed in the present invention were added to cells from 10 mM stocks made in DMSO (Sigma Cat no. D2650). Each concentration of compound was tested in triplicate with DMSO concentration at a final percentage not exceeding 0.3 in the cells. After the compound incubation (3 days for H929 and 8 days for H838) assay was terminated using 50 μl of CellTiter Glo® reagent (Promega, Cat. no G7572). CellTiter Glo® Luminescent reagent determines the number of viable cells based on quantitation of ATP present which is an indicator of cell number and metabolic activity. Luminescence readings were taken in Victor-3 instrument. Percent inhibition of proliferation was calculated using formula, % inhibition=100−(luminescence value of test/luminescence value of DMSO control)*100. DMSO control (0%)=Cells in complete media with DMSO; blank=Media alone containing DMSO. IC50 was calculated using graph pad prism software.
Herein group “A” refers to IC50 value lower than 1 μM, “B” refers to IC50 value between 1-10 μM (both inclusive) and “C” refers to IC50 value higher than 10 μM or less than 50% activity at 10 μM.
Cc1ncsc1-c1ccc(CNC(=O)[C@@H]2C[C@@H](O)CN2C(=O)[C@@H](NC(=O)COCCNC(=O)C2CCN(c3cc(-c4ccccc4O)nnc3N)CC2)C(C)(C)C)cc1 [Compound 1, 1-(3-amino-6-(2-hydroxyphenyl)pyridazin-4-yl)-N-(2-(2-(((S)-1-((2S,4R)-4-hydroxy-2-((4-(4-methylthiazol-5-yl)benzyl)carbamoyl)pyrrolidin-1-yl)-3,3-dimethyl-1-oxobutan-2-yl)amino)-2-oxoethoxy)ethyl)piperidine-4-carboxamide] gave an IC50 greater than 10 µM. Compound Cc1ncsc1-c1ccc(CNC(=O)[C@@H]2C[C@@H](O)CN2C(=O)[C@@H](NC(=O)COCCOCCNC(=O)C2CCN(c3cc(-c4ccccc4O)nnc3N)CC2)C(C)(C)C)cc1 [Compound 2] has an IC50 greater than 10 µM. Cc1ncsc1-c1ccc(CNC(=O)[C@@H]2C[C@@H](O)CN2C(=O)[C@@H](NC(=O)COCCOCCOCCOCCNC(=O)C2CCN(c3cc(-c4ccccc4O)nnc3N)CC2)C(C)(C)C)cc1 [Compound 3] gave an IC50 greater than 10 µM. Cc1ncsc1-c1ccc(CNC(=O)[C@@H]2C[C@@H](O)CN2C(=O)[C@@H](NC(=O)COCCOCCOCCNC(=O)C2CCN(c3cc(-c4ccccc4O)nnc3N)CC2)C(C)(C)C)cc1 [Compound 4] showed an IC50 greater than 10 µM. Cc1ncsc1-c1ccc(CNC(=O)[C@@H]2C[C@@H](O)CN2C(=O)[C@@H](NC(=O)C2CCN(c3cc(-c4ccccc4O)nnc3N)CC2)C(C)(C)C)cc1 [Compound 5] was tested, and the IC50 was greater than 10 µM. In the case of Nc1nnc(-c2ccccc2O)cc1N1CCC(C(=O)NCCOCC(=O)Nc2cccc3c2C(=O)N(C2CCC(=O)NC2=O)C3=O)CC1 (stereo not shown) [Compound 6], the IC50 is reported as greater than 10 µM. With Nc1nnc(-c2ccccc2O)cc1N1CCC(C(=O)NCCOCCOCCOCCOCC(=O)Nc2cccc3c2C(=O)N(C2CCC(=O)NC2=O)C3=O)CC1 (stereo not shown) [Compound 8] the IC50 was greater than 10 µM. For Nc1nnc(-c2ccccc2O)cc1N1CCC(C(=O)NCCOCCOCC(=O)Nc2cccc3c2C(=O)N(C2CCC(=O)NC2=O)C3=O)CC1 (stereo not shown) [Compound 9], the IC50 was greater than 10 µM. Nc1nnc(-c2ccccc2O)cc1N1CCC(C(=O)NCCOCCOCCOCC(=O)Nc2cccc3c2CN(C2CCC(=O)NC2=O)C3=O)CC1 (stereo not shown) [Compound 12] showed an IC50 greater than 10 µM. Compound Cc1ncsc1-c1ccc(CNC(=O)[C@@H]2C[C@@H](O)CN2C(=O)[C@@H](NC(=O)COCC(=O)NC2CCN(c3cc(-c4ccccc4O)nnc3N)CC2)C(C)(C)C)cc1 [Compound 14] has an IC50 greater than 10 µM. With Nc1nnc(-c2ccccc2O)cc1N1CCC(NC(=O)COCC(=O)Nc2cccc3c2CN(C2CCC(=O)NC2=O)C3=O)CC1 (stereo not shown) [Compound 15] the IC50 was greater than 10 µM. Nc1nnc(-c2ccccc2O)cc1N1CCC(NC(=O)COCC(=O)Nc2cccc3c2C(=O)N(C2CCC(=O)NC2=O)C3=O)CC1 (stereo not shown) [Compound 16] gave an IC50 greater than 10 µM. With Nc1nnc(-c2ccccc2O)cc1N1CCC(NC(=O)CCCCCCC(=O)Nc2cccc3c2CN(C2CCC(=O)NC2=O)C3=O)CC1 (stereo not shown) [Compound 17] the IC50 was greater than 10 µM. Work on Nc1nnc(-c2ccccc2O)cc1N1CCC(NC(=O)CCCCCCCCCC(=O)Nc2cccc3c2CN(C2CCC(=O)NC2=O)C3=O)CC1 (stereo not shown) [Compound 18] yielded an IC50 greater than 10 µM. For Nc1nnc(-c2ccccc2O)cc1N1CCC(NC(=O)CCCCCCC(=O)Nc2cccc3c2C(=O)N(C2CCC(=O)NC2=O)C3=O)CC1 (stereo not shown) [Compound 19], the IC50 was greater than 10 µM. Work on Cc1ncsc1-c1ccc(CNC(=O)[C@@H]2C[C@@H](O)CN2C(=O)[C@@H](NC(=O)CCCC(=O)NC2CCN(c3cc(-c4ccccc4O)nnc3N)CC2)C(C)(C)C)cc1 [Compound 20] yielded an IC50 greater than 10 µM. In the case of Cc1ncsc1-c1ccc(CNC(=O)[C@@H]2C[C@@H](O)CN2C(=O)[C@@H](NC(=O)CCCCCCC(=O)NC2CCN(c3cc(-c4ccccc4O)nnc3N)CC2)C(C)(C)C)cc1 [Compound 21], the IC50 is reported as greater than 10 µM. With Cc1ncsc1-c1ccc(CNC(=O)[C@H]2C[C@H](O)CN2C(=O)[C@H](NC(=O)CCCCCCCCCC(=O)NC2CCN(c3cc(-c4ccccc4O)nnc3N)CC2)C(C)(C)C)cc1 [Compound 22] the IC50 was greater than 10 µM. Work on Cc1ncsc1-c1ccc([C@H](C)NC(=O)[C@@H]2C[C@@H](O)CN2C(=O)[C@@H](NC(=O)CCCCCCC(=O)NC2CCN(c3cc(-c4ccccc4O)nnc3N)CC2)C(C)(C)C)cc1 [Compound 23] yielded an IC50 of 1 to 10 µM. Nc1nnc(-c2ccccc2O)cc1N1CCN(C(=O)CCCC(=O)Nc2cccc3c2CN(C2CCC(=O)NC2=O)C3=O)CC1 (stereo not shown) [Compound 25] showed an IC50 greater than 10 µM. Nc1nnc(-c2ccccc2O)cc1N1CCN(C(=O)CCCCCCC(=O)Nc2cccc3c2CN(C2CCC(=O)NC2=O)C3=O)CC1 (stereo not shown) [Compound 26] showed an IC50 greater than 10 µM. Nc1nnc(-c2ccccc2O)cc1N1CCN(C(=O)CCCCCCCCCC(=O)Nc2cccc3c2CN(C2CCC(=O)NC2=O)C3=O)CC1 (stereo not shown) [Compound 27] gave an IC50 greater than 10 µM. Nc1nnc(-c2ccccc2O)cc1N1CCN(C(=O)COCC(=O)Nc2cccc3c2CN(C2CCC(=O)NC2=O)C3=O)CC1 (stereo not shown) [Compound 28] was tested, and the IC50 was greater than 10 µM. Nc1nnc(-c2ccccc2O)cc1N1CCN(C(=O)COCC(=O)Nc2cccc3c2C(=O)N(C2CCC(=O)NC2=O)C3=O)CC1 (stereo not shown) [Compound 29] showed an IC50 greater than 10 µM. Nc1nnc(-c2ccccc2O)cc1N1CCN(C(=O)CCCCCCC(=O)Nc2cccc3c2C(=O)N(C2CCC(=O)NC2=O)C3=O)CC1 (stereo not shown) [Compound 30] gave an IC50 greater than 10 µM. With Cc1ncsc1-c1ccc(CNC(=O)[C@@H]2C[C@@H](O)CN2C(=O)[C@@H](NC(=O)COCC(=O)N2CCN(c3cc(-c4ccccc4O)nnc3N)CC2)C(C)(C)C)cc1 [Compound 31] the IC50 was greater than 10 µM. Cc1ncsc1-c1ccc(CNC(=O)[C@@H]2C[C@@H](O)CN2C(=O)[C@@H](NC(=O)CCCC(=O)N2CCN(c3cc(-c4ccccc4O)nnc3N)CC2)C(C)(C)C)cc1 [Compound 33] gave an IC50 greater than 10 µM. Cc1ncsc1-c1ccc(CNC(=O)[C@@H]2C[C@@H](O)CN2C(=O)[C@@H](NC(=O)CCCCCCC(=O)N2CCN(c3cc(-c4ccccc4O)nnc3N)CC2)C(C)(C)C)cc1 [Compound 34] showed an IC50 greater than 10 µM. Cc1ncsc1-c1ccc(CNC(=O)[C@@H]2C[C@@H](O)CN2C(=O)[C@@H](NC(=O)CCCCCCCCCC(=O)N2CCN(c3cc(-c4ccccc4O)nnc3N)CC2)C(C)(C)C)cc1 [Compound 35] was tested, and the IC50 was 1 to 10 µM. With Nc1nnc(-c2ccccc2O)cc1N1CCN(CC(=O)Nc2cccc3c2CN(C2CCC(=O)NC2=O)C3=O)CC1 (stereo not shown) [Compound 42] the IC50 was greater than 10 µM. In the case of COc1ccccc1-c1cc(N2CCN(CC(=O)N[C@H](C(=O)N3C[C@H](O)C[C@H]3C(=O)N[C@@H](C)c3ccc(-c4scnc4C)cc3)C(C)(C)C)CC2)c(N)nn1 [Compound 45], the IC50 is reported as greater than 10 µM. Compound Cc1ncsc1-c1ccc([C@H](C)NC(=O)[C@@H]2C[C@@H](O)CN2C(=O)[C@@H](NC(=O)CN2CCN(c3cc(-c4ccccc4)nnc3N)CC2)C(C)(C)C)cc1 [Compound 46] has an IC50 greater than 10 µM. Cc1ncsc1-c1ccc([C@H](C)NC(=O)[C@@H]2C[C@@H](O)CN2C(=O)[C@@H](NCC(=O)N2CCN(c3cc(-c4ccccc4O)nnc3N)CC2)C(C)(C)C)cc1 [Compound 49, (2S,4R)-1-((S)-2-((2-(4-(3-amino-6-(2-hydroxyphenyl)pyridazin-4-yl)piperazin-1-yl)-2-oxoethyl)amino)-3,3-dimethylbutanoyl)-4-hydroxy-N—((S)-1-(4-(4-methylthiazol-5-yl)phenyl)ethyl)pyrrolidine-2-carboxamide] gave an IC50 of 1 to 10 µM. Cc1ncsc1-c1ccc([C@H](C)NC(=O)[C@@H]2C[C@@H](O)CN2C(=O)[C@@H](NC(=O)CN2CCN(c3cc(Cl)nnc3N)CC2)C(C)(C)C)cc1 [Compound 50, (2S,4R)-1-((S)-2-(2-(4-(3-amino-6-chloropyridazin-4-yl)piperazin-1-yl)acetamido)-3,3-dimethylbutanoyl)-4-hydroxy-N—((S)-1-(4-(4-methylthiazol-5-yl)phenyl)ethyl)pyrrolidine-2-carboxamide] was tested, and the IC50 was greater than 10 µM. Work on Cc1ncsc1-c1ccc(CNC(=O)[C@@H]2C[C@@H](O)CN2C(=O)[C@@H](NC(=O)COCCN2CCN(c3cc(-c4ccccc4O)nnc3N)CC2)C(C)(C)C)cc1 [Compound 53, (2S,4R)-1-((S)-2-(2-(2-(4-(3-amino-6-(2-hydroxyphenyl)pyridazin-4-yl)piperazin-1-yl)ethoxy)acetamido)-3,3-dimethylbutanoyl)-4-hydroxy-N-(4-(4-methylthiazol-5-yl)benzyl)pyrrolidine-2-carboxamide] yielded an IC50 greater than 10 µM. In the case of Cc1ncsc1-c1ccc([C@H](C)NC(=O)[C@@H]2C[C@@H](O)CN2C(=O)[C@@H](NC(=O)CN2CCN(c3cc(-c4ccccc4O)nnc3O)CC2)C(C)(C)C)cc1 [Compound 54, (2S,4R)-4-hydroxy-1-((S)-2-(2-(4-(3-hydroxy-6-(2-hydroxyphenyl)pyridazin-4-yl)piperazin-1-yl)acetamido)-3,3-dimethylbutanoyl)-N—((S)-1-(4-(4-methylthiazol-5-yl)phenyl)ethyl)pyrrolidine-2-carboxamide], the IC50 is reported as greater than 10 µM. Compound Cc1ncsc1-c1ccc([C@H](C)NC(=O)[C@@H]2C[C@@H](O)CN2C(=O)[C@@H](NC(=O)CN2CCN(c3ccnnc3N)CC2)C(C)(C)C)cc1 [Compound 67, (2S,4R)-1-((S)-2-(2-(4-(3-aminopyridazin-4-yl)piperazin-1-yl)acetamido)-3,3-dimethylbutanoyl)-4-hydroxy-N—((S)-1-(4-(4-methylthiazol-5-yl)phenyl)ethyl)pyrrolidine-2-carboxamide] has an IC50 greater than 10 µM.
